Laboratory results as given in patent US12616704B2, “Cannabichromene formulation for pain management” (Zyus Life Sciences Inc., priority 2020, dated 2026).

Experiments:
Type in all cases: in vivo, C57BL/6J mice
[1] = test system: Oxaliplatin-induced cool allodynia; assay: Acetone Cooling Test (ACT) in oxaliplatin-induced polyneuropathy (OIPN) model; conditions: CBC 20 mg/kg p.o., Duloxetine 25 mg/kg i.p.
Procedure: Model Induction—Mouse Oxaliplatin-induced polyneuropathy (OIPN) model was induced over a three-week period. The day of first Oxaliplatin (OXP) injection is referred to as day 0 (DO). OXP was administered as six separate intraperitoneal injections at 4.5-mg/kg (10 ml/kg, i.p.) to Groups 2, 3, and 4 on DO, D4, D8, D12, D16, and D20. The cumulative OXP dose was thus 27 mg/kg. The in-life procedures, such as observations, tests, and/or measurements were performed by Charles River Discovery Services with blinded methods. The mice were distributed into 4 groups (n=8 for Vehicle Control; n=10 OXP Control; n=20 CBC; n=15 Duloxetine).
Treatments—Following exposure to OXP for 20 days, Groups 3 and 4 were treated with CBC (20 mg/kg, p.o.) and Duloxetine (25 mg/kg, i.p.), respectively, for 10 consecutive days. In a similar regimen Groups 1 and 2 (Vehicle Control and OXP-Vehicle Control, respectively) received a corresponding volume of 5% glucose solution at an administration volume of 10 mL/kg.
Acetone Cooling Test (ACT) —To produce a measurable cooling sensation, 10-15 μL of acetone was applied onto the medial area of the plantar hind paw with a 0.5 ml insulin syringe. Responses of a mouse to acetone were monitored for 20 s, and a score given based on a four-point scale (0-3 points), according to the response intensity, continuation, and briskness. The higher the score, the greater the cool allodynia sensed by the mouse.
Within one test timepoint, a total of 3 trials were performed per paw with a minimum gap of 5 min between testing. The three individual scores were added up to obtain a single score over a cumulative period of 60 s. Thus, for one test, the minimum score of one paw is 0 (no cool allodynia), while the maximum possible score is 9 (intensive cool allodynia). The total scores for the left and right paws were averaged to accomplish a single result value per mouse at each timepoint.
The Acetone Cooling Test was performed prior to OXP administration (Baseline), following the last OXP injection (D21), one day after the first CBC, Duloxetine, or Vehicle treatment (D22), and after a 10-day daily dosing of CBC, Duloxetine, or Vehicle treatment (D31). Taken together, the ACT was used to assess chemotherapy-induce cool allodynia as stated in the schedule:
On D22: At 60 min after the first Vehicle/CBC dose and 120 min after Dulx dose.
On D31: At 60 min after the last Vehicle/CBC and 120 min after Dulx dose.

[2] = Welfare observations in OIPN study; conditions: Duloxetine 25 mg/kg i.p., OIPN mice
Source text: Seven mice were disqualified from further study due to showing too mild cool allodynia.

[3] = Body weight in OIPN study; conditions: OIPN mice; CBC 20 mg/kg p.o., Duloxetine 25 mg/kg i.p.
Procedure: Body Weight—Animal body weights were measured before assigning the treatment groups and then on each day of the study. The last body weight measurement was performed upon endpoint sampling. Terminal body weights were not collected from animals found dead or euthanized moribund.

What does the source list for `CNCC[C@H](Oc1cccc2ccccc12)c1cccs1` [Duloxetine, reference compound]?
ACT score compared with OXP-Vehicle control ([1]; D22, acute single dose): statistically significant and comparable reduction in cool allodynia; ACT score compared with OXP-Vehicle control ([1]; D31, chronic repeated dosing): maintained a significant reduction in cool allodynia; ACT score, D31 vs. D21 ([1]; within group, 10-day repeated dosing): significant reduction of cool allodynia; ACT score, reversion of cool allodynia D22 vs. D21 pre-treatment: p ([1]; within group, single dose): < 0.01; share of the group with adverse effects (enlarged staring eyes and clearly decreased activity) [2]: 30%; body weight development from D22 onwards [3]: slower increase in body weight
